Results taken from PubChem BioAssay (NCI).
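All cell lines were grown in 96-well plates and treated with compound for 48 hours. TGI denotes the concentration required for complete inhibition of growth.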

What was measured:
Test in all cases: DTP human tumour cell line panel, 48 h
[1] = test system: KM12 colon
[2] = test system: CCRF-CEM leukemia
[3] = test system: ACHN renal
[4] = test system: SF-295 CNS
[5] = test system: SK-MEL-5 melanoma
[6] = test system: U251 CNS
[7] = test system: UACC-62 melanoma
[8] = test system: SF-539 CNS
[9] = test system: CAKI-1 renal
[10] = test system: BT-549 breast

Row | SMILES | TGI [1] [µM] | TGI [2] [µM] | TGI [3] [µM] | TGI [4] [µM] | TGI [5] [µM] | TGI [6] [µM] | TGI [7] [µM] | TGI [8] [µM] | TGI [9] [µM] | TGI [10] [µM]
1 | CCOC(=O)/C=C1/C(CCCOCc2ccccc2)C2CCCC23CC2(CCN13)OCCO2 (stereo not given) | 58 | 64.4 | 83.9 | > 100 | 34.8 | 51.4 | 50 |  |  | 
2 | Nc1c(S(=O)(=O)c2ccc(Cl)cc2)c2nc3ccccc3nc2n2ccnc12 | > 100 | > 100 | > 100 | > 100 | > 100 | > 100 |  | 36.2 |  | 
3 | CN1Cc2c(nc(-c3ccccc3)c[n+]2[O-])N(C)C1 | > 100 | > 100 | > 100 | > 100 | > 100 | > 100 | > 100 | > 100 | > 100 | 
4 | COc1ccc(CC(N)=O)cc1OC | > 1250 | > 1250 |  | > 1250 | > 1250 | > 1250 | > 1250 | > 1250 | > 575 | 
5 | OCCCc1ccc2c(c1)[C@H](CO)[C@@H](c1ccc(O)cc1)O2 | > 100 | > 100 | > 100 | > 100 | 32.7 | > 100 | > 100 | > 100 |  | 47.8
6 | Cc1ccc(/C=C2/N=C(N/N=C\C(O)C(O)C(O)C(O)CO)NC2=O)cc1 (stereo not given) | > 100 | > 100 | > 100 | > 100 | > 100 | > 100 |  | > 100 | > 100 | > 100
7 | O=C1C(=Nc2ccc(Nc3ccccc3)cc2)Oc2ccccc21 | 4.03 | 4.92 | 9.93 | 12.1 | 16.1 | 4.27 | 10.7 | 8.41 | 7.58 | 
8 | CN(C)Cc1cc(C(=O)/C=C/c2ccc([N+](=O)[O-])cc2)cc(CN(C)C)c1O | 29.7 | 21.4 | 10.2 | 38.9 | 23.4 | 14.9 | 33.3 | 40.5 |  | 37.1
9 | Cn1c2ccccc2c2c(=S)c3ccccc3ccc21 | > 100 | > 100 | > 100 | > 100 | > 100 | > 100 | > 100 |  | > 100 | > 100
10 | Nc1ncc2c(n1)-c1ccccc1OC2N1CCCC1 (stereo not given) | > 100 | > 100 | > 100 | > 100 | > 100 | > 100 | > 100 | > 100 | > 100 | 
11 | C=C(CN(C)C)C(=O)c1ccc(C(=O)C(=C)CN(C)C)cc1 | > 100 | > 100 | > 100 | > 100 | > 100 | > 100 | > 100 | > 100 | > 100 | 
12 | CNc1[nH]c(=S)nc2sc3c(c12)CCCC3 | > 75 |  | > 75 | > 75 | > 75 | > 75 | > 75 |  | > 75 | > 75
13 | O[C@H]1[C@H](O)[C@@H](O)CN2CC[C@H](O)[C@H]12 | > 100 | > 100 |  | > 100 | > 100 | > 100 | > 100 | > 100 | > 100 | 
14 | Cc1cc(C)nc(NC(=S)Nc2ccc([N+](=O)[O-])cc2)c1 | > 100 | > 100 | > 100 |  | > 100 | > 100 | > 100 | > 100 | > 100 | > 100
15 | O=C(NCCCl)O/N=C/c1cccnc1 | > 100 | > 100 |  | > 100 | > 100 | > 100 | > 100 | > 100 | > 100 | 
16 | Cc1nc2ccccc2c(-n2cccn2)c1CCn1cccn1 | > 100 | > 100 | > 100 | > 100 | > 100 | > 100 | > 100 | > 100 | > 100 | 
17 | COc1cc(C=O)ccc1O | > 100 | > 100 | > 100 | > 100 | > 100 | > 100 |  | > 100 | > 100 | 
18 | O=C(CNc1ccc(Cl)cc1Cl)Nn1c(-c2ccccc2)nc2ccccc2c1=O |  | 16.3 | 37.3 | 30.1 | 18.5 |  | 19.5 | 35.6 |  | 34.5
19 | CCOC(=O)/C(C(C)=O)=C(\OC(C)=O)c1ccncc1C(=O)O | > 100 | > 100 | > 100 | > 100 |  | > 100 | > 100 | > 100 | > 100 | > 100
20 | CC12c3c4ccc(C=O)c3Oc3ccc(C=O)c(c31)Oc1ccc(C=O)c(c12)O4 | > 25 | > 25 | > 25 | > 25 |  | > 25 | > 25 | > 25 | > 25 | > 25
21 | Clc1sc(Cl)c2c1[C@@H](Cl)C[C@@H]2Br | > 100 | 88.1 | > 100 | > 100 | > 100 | > 100 | > 100 |  | > 100 | > 100
22 | CC(C)(C)N=C(N)NC#N |  | > 100 | > 100 |  | > 100 | > 100 | > 100 | > 100 | > 100 | > 100
23 | CN1CC[C@]2(c3cccc(O)c3)CC(=O)/C(=C/c3ccccc3)[C@@H]1C2 | 11.4 | > 24.5 | 6.74 | 13.2 | 14.7 | 8.36 |  | 6.1 | 6.04 | 7.27
